25 molecules from US9371295B2, “Compounds for use in the treatment of disorders that are ameliorated by inhibition of HDAC” (IRBM—Science Park S.p.A., priority 2012, dated 2016) can be followed below.

A word on the IC50: it is the point on the concentration scale where inhibition reaches its midpoint. One may read the EC50 as the concentration at which the effect is half-maximal. A low value points to higher potency in that assay.

One assay concerns HDAC in Hela cells. Put plainly: HDAC Hela Cell Based assay.
A further assay addresses T1, HDAC1 (Homo sapiens, UniProt Q13547).
T1 construct: made in house
Put plainly: HDAC1 assay (Fluor-de-Lys fluorescent deacetylase assay). Format: biochemical. Particulars: read-out: hHDAC IC50. A digest of the protocol:
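Serially diluted compounds were pre-incubated with purified FLAG-tagged HDAC1 (1-2 nM final; from transfected HeLa cells) or HeLa nuclear extract, then given the Fluor-de-Lys acetyl-lysine substrate/developer; deacetylation read as fluorescence. Reactions were stopped with TSA (3 uM final).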

Assay [1] relates to human γ-globin promoter (EGFP reporter) in K562 cells. Put plainly: HbF activation assay on K562 (EGFP/RFP reporter model system for screening of inducers of fetal hemoglobin). The following applies: 60 hours. Format: cell-based. In short, it runs like this: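 K562 cells stably carrying EGFP under the human γ-globin promoter and far-red FP under the β-globin promoter, with the LCR, were seeded at 1000 cells/well. Cells were exposed to compounds (0.25% DMSO final) for 60 h at 37 °C. Fluorescence was read by plate cytometry, normalized to Hoechst nuclei count, which also indicated proliferation or death.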

T1 sequence (Q13547 whole entry): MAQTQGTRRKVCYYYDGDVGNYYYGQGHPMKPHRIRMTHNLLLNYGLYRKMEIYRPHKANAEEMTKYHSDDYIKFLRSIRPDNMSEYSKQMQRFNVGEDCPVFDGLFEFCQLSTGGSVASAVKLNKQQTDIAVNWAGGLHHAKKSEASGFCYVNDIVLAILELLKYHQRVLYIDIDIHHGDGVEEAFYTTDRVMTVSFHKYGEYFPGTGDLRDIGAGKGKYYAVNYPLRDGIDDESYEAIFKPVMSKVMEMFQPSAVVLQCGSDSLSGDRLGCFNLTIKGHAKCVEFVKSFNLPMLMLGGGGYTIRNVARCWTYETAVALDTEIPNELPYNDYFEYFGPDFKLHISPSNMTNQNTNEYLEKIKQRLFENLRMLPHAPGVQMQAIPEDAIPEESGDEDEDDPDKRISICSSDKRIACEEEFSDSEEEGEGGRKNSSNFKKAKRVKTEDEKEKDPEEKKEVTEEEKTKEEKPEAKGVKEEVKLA

For the molecule `CCC(=O)CCCCC[C@H](NC(=O)C1CN(C)C1)c1nnc(-c2cc3ccccc3n(C)c2=O)o1` [Compound 71, (S)-1-methyl-N-(1-(5-(1-methyl-2-oxo-1,2-dihydroquinolin-3-yl)-1,3,4-oxadiazol-2-yl)-7-oxononyl)azetidine-3-carboxamide], the concentration for half-maximal inhibition (IC50) is 100 to 1000 nM in the assay with HDAC in Hela cells and under 100 nM at HDAC1. For the same molecule, in assay [1], the EC50 was over 1000 nM.

Take `CCC(=O)CCCCC[C@H](NC(=O)C1CNC(=O)C1)c1ncc(-c2cc3ccccc3nc2OC)o1` (stereo partly drawn) [Compound 72, N-((S)-1-(5-(2-methoxyquinolin-3-yl)oxazol-2-yl)-7-oxononyl)-5-oxopyrrolidine-3-carboxamide]: the results for the IC50 in the assay with HDAC in Hela cells and on HDAC1 were 100 to 1000 nM and under 100 nM, respectively. The EC50 in assay [1] lay in the range of 100 to 1000 nM.

On to `CCC(=O)CCCCC[C@H](NC(=O)Cc1c[nH]cn1)c1ncc(-c2cc3ccccc3nc2OC)o1` [Compound 73, (S)-2-(1H-imidazol-4-yl)-N-(1-(5-(2-methoxyquinolin-3-yl)oxazol-2-yl)-7-oxononyl)acetamide], for which the figures for the IC50 in the assay with HDAC in Hela cells and on HDAC1 were 100 to 1000 nM and under 100 nM, respectively. In assay [1], this molecule yielded an EC50 of over 1000 nM.

As to `CCC(=O)CCCCC[C@H](NC(=O)Cc1cccnc1)c1ncc(-c2cc3ccccc3nc2OC)o1` [Compound 74, (S)-N-(1-(5-(2-methoxyquinolin-3-yl)oxazol-2-yl)-7-oxononyl)-2-(pyridin-3-yl)acetamide], the results for the IC50 in the assay on HDAC in Hela cells and on HDAC1 were 100 to 1000 nM and under 100 nM, respectively. The EC50 in assay [1] is over 1000 nM.

`CCC(=O)CCCCC[C@H](NC(=O)CCn1ccnc1)c1ncc(-c2cc3ccccc3nc2OC)o1` [Compound 75, (S)-3-(1H-imidazol-1-yl)-N-(1-(5-(2-methoxyquinolin-3-yl)oxazol-2-yl)-7-oxononyl)propanamide]: the IC50 was 100 to 1000 nM in the assay with HDAC in Hela cells and under 100 nM at HDAC1. For the same molecule, the EC50 in assay [1] was 100 to 1000 nM.

For the molecule `CCC(=O)CCCCC[C@H](NC(=O)Cc1nccs1)c1ncc(-c2cc3ccccc3nc2OC)o1` [Compound 76, (S)-N-(1-(5-(2-methoxyquinolin-3-yl)oxazol-2-yl)-7-oxononyl)-2-(thiazol-2-yl)acetamide], the values for the IC50 in the assay on HDAC in Hela cells and on HDAC1 were 100 to 1000 nM and under 100 nM, respectively. Moreover, in assay [1], the EC50 was over 1000 nM.

With `CCC(=O)CCCCC[C@H](NC(=O)Cc1nonc1C)c1ncc(-c2cc3ccccc3nc2OC)o1` [Compound 77, (S)-N-(1-(5-(2-methoxyquinolin-3-yl)oxazol-2-yl)-7-oxononyl)-2-(4-methyl-1,2,5-oxadiazol-3-yl)acetamide], the results for the IC50 in the assay with HDAC in Hela cells and on HDAC1 were 100 to 1000 nM and under 100 nM, respectively. Moreover, the EC50 in assay [1] was over 1000 nM.

As for `CCC(=O)CCCCC[C@H](NC(=O)Cn1ccc(C)n1)c1ncc(-c2cc3ccccc3nc2OC)o1` [Compound 78, (S)-N-(1-(5-(2-methoxyquinolin-3-yl)oxazol-2-yl)-7-oxononyl)-2-(3-methyl-1H-pyrazol-1-yl)acetamide], the IC50 was 100 to 1000 nM with HDAC in Hela cells and under 100 nM at HDAC1. Moreover, in assay [1], the EC50 is over 1000 nM.

For `CCC(=O)CCCCC[C@H](NC(=O)Cc1ncccn1)c1ncc(-c2cc3ccccc3nc2OC)o1` [Compound 79, (S)-N-(1-(5-(2-methoxyquinolin-3-yl)oxazol-2-yl)-7-oxononyl)-2-(pyrimidin-2-yl)acetamide], the IC50 in the assay on HDAC in Hela cells was 100 to 1000 nM; at HDAC1, under 100 nM. The EC50 in assay [1] is over 1000 nM.

As to `CCC(=O)CCCCC[C@H](NC(=O)Cn1nc(C)cc1C)c1ncc(-c2cc3ccccc3nc2OC)o1` [Compound 81, (S)-2-(3,5-dimethyl-1H-pyrazol-1-yl)-N-(1-(5-(2-methoxyquinolin-3-yl)oxazol-2-yl)-7-oxononyl)acetamide], the IC50 is 100 to 1000 nM in the assay on HDAC in Hela cells and under 100 nM on HDAC1. The EC50 in assay [1] is over 1000 nM.

Turning to `CCC(=O)CCCCC[C@H](NC(=O)c1sc(C)nc1C)c1ncc(-c2cc3ccccc3nc2OC)o1` [Compound 83, (S)-N-(1-(5-(2-methoxyquinolin-3-yl)oxazol-2-yl)-7-oxononyl)-2,4-dimethylthiazole-5-carboxamide], the IC50 in the assay on HDAC in Hela cells is 100 to 1000 nM; at HDAC1, under 100 nM. The EC50 in assay [1] was over 1000 nM.

Take `CCC(=O)CCCCC[C@H](NC(=O)C1(C)CN(C)C1)c1ncc(-c2cc3ccccc3nc2OC)o1` [Compound 84, (S)-N-(1-(5-(2-methoxyquinolin-3-yl)oxazol-2-yl)-7-oxononyl)-1,3-dimethylazetidine-3-carboxamide]: the half-maximal inhibitory concentration (IC50) in the assay on HDAC in Hela cells was 100 to 1000 nM; at HDAC1, under 100 nM. Moreover, in assay [1], the EC50 lay in the range of 100 to 1000 nM.

On to `CCC(=O)CCCCC[C@H](NC(=O)C1CCN1C)c1ncc(-c2cc3ccccc3nc2OC)o1` (stereo partly drawn) [Compound 85, N-((S)-1-(5-(2-methoxyquinolin-3-yl)oxazol-2-yl)-7-oxononyl)-1-methylazetidine-2-carboxamide], for which the IC50 is 100 to 1000 nM in the assay with HDAC in Hela cells and under 100 nM on HDAC1. This molecule also showed an EC50 in assay [1] of over 1000 nM.

For `CCC(=O)CCCCC[C@H](NC(=O)Cn1cncn1)c1ncc(-c2cc3ccccc3nc2OC)o1` [Compound 86, (S)-N-(1-(5-(2-methoxyquinolin-3-yl)oxazol-2-yl)-7-oxononyl)-2-(1H-1,2,4-triazol-1-yl)acetamide], the IC50 is 100 to 1000 nM in the assay with HDAC in Hela cells and under 100 nM at HDAC1. Besides, in assay [1], the EC50 is over 1000 nM.

Regarding `CCC(=O)CCCCC[C@H](NC(=O)c1ccnn1C)c1ncc(-c2cc3ccccc3nc2OC)o1` [Compound 87, (S)-N-(1-(5-(2-methoxyquinolin-3-yl)oxazol-2-yl)-7-oxononyl)-1-methyl-1H-pyrazole-5-carboxamide], the IC50 was 100 to 1000 nM with HDAC in Hela cells and under 100 nM at HDAC1. The molecule also registered an EC50 in assay [1] of 100 to 1000 nM.

As for `CCC(=O)CCCCC[C@H](NC(=O)Cn1cc2ccccc2n1)c1ncc(-c2cc3ccccc3nc2OC)o1` [Compound 88, (S)-2-(2H-indazol-2-yl)-N-(1-(5-(2-methoxyquinolin-3-yl)oxazol-2-yl)-7-oxononyl)acetamide], the IC50 is 100 to 1000 nM with HDAC in Hela cells and under 100 nM on HDAC1. This molecule had an EC50 in assay [1] of over 1000 nM.

With `CCC(=O)CCCCC[C@H](NC(=O)Cc1cc2ncccn2n1)c1ncc(-c2cc3ccccc3nc2OC)o1` [Compound 89, (S)-N-(1-(5-(2-methoxyquinolin-3-yl)oxazol-2-yl)-7-oxononyl)-2-(pyrazolo[1,5-a]pyrimidin-2-yl)acetamide], the IC50 was 100 to 1000 nM with HDAC in Hela cells and under 100 nM on HDAC1. Moreover, the EC50 in assay [1] is over 1000 nM.

`CCC(=O)CCCCC[C@H](NC(=O)c1nnc(C)o1)c1ncc(-c2cc3ccccc3nc2OC)o1` [Compound 90, (S)-N-(1-(5-(2-methoxyquinolin-3-yl)oxazol-2-yl)-7-oxononyl)-5-methyl-1,3,4-oxadiazole-2-carboxamide]: the IC50 in the assay with HDAC in Hela cells was 100 to 1000 nM; at HDAC1, under 100 nM. Moreover, the EC50 in assay [1] was over 1000 nM.

Consider `CCC(=O)CCCCC[C@H](NC(=O)c1cccnc1)c1ncc(-c2cc3ccccc3nc2OC)o1` [Compound 91, (S)-N-(1-(5-(2-methoxyquinolin-3-yl)oxazol-2-yl)-7-oxononyl)nicotinamide], for which the IC50 in the assay with HDAC in Hela cells was 100 to 1000 nM; at HDAC1, under 100 nM. Also, the EC50 in assay [1] is 100 to 1000 nM.

As for `CCC(=O)CCCCC[C@H](NC(=O)CCc1cnn(C)c1)c1ncc(-c2cc3ccccc3nc2OC)o1` [Compound 93, (S)-N-(1-(5-(2-methoxyquinolin-3-yl)oxazol-2-yl)-7-oxononyl)-3-(1-methyl-1H-pyrazol-4-yl)propanamide], the figures for the IC50 in the assay on HDAC in Hela cells and at HDAC1 were 100 to 1000 nM and under 100 nM, respectively. Further, the EC50 in assay [1] fell in the range of 100 to 1000 nM.

On to `CCC(=O)CCCCC[C@H](NC(=O)c1cc(CN2CCCCC2)ns1)c1ncc(-c2cc3ccccc3nc2OC)o1` [Compound 94, (S)-N-(1-(5-(2-methoxyquinolin-3-yl)oxazol-2-yl)-7-oxononyl)-3-(piperidin-1-ylmethyl)isothiazole-5-carboxamide], for which the IC50 in the assay on HDAC in Hela cells was 100 to 1000 nM; at HDAC1, under 100 nM. The molecule further registered an EC50 in assay [1] of over 1000 nM.

Consider `CCC(=O)CCCCC[C@H](NC(=O)C(C)n1nc(C)cc1C)c1ncc(-c2cc3ccccc3nc2OC)o1` (stereo partly drawn) [Compound 95, 2-(3,5-dimethyl-1H-pyrazol-1-yl)-N-((S)-1-(5-(2-methoxyquinolin-3-yl)oxazol-2-yl)-7-oxononyl)propanamide], for which the IC50 in the assay with HDAC in Hela cells is 100 to 1000 nM; at HDAC1, under 100 nM. In assay [1], this molecule came in with an EC50 of over 1000 nM.

For the molecule `CCC(=O)CCCCC[C@H](NC(=O)c1cc(C)nn1C)c1ncc(-c2cc3ccccc3nc2OC)o1` [Compound 96, (S)-N-(1-(5-(2-methoxyquinolin-3-yl)oxazol-2-yl)-7-oxononyl)-1,3-dimethyl-1H-pyrazole-5-carboxamide], the figures for the IC50 in the assay on HDAC in Hela cells and on HDAC1 were 100 to 1000 nM and under 100 nM, respectively. The molecule also displayed an EC50 in assay [1] of over 1000 nM.

Take `CCC(=O)CCCCC[C@H](NC(=O)Cn1cnc2ccccc21)c1ncc(-c2cc3ccccc3nc2OC)o1` [Compound 97, (S)-2-(1H-benzo[d]imidazol-1-yl)-N-(1-(5-(2-methoxyquinolin-3-yl)oxazol-2-yl)-7-oxononyl)acetamide]: the IC50 is 100 to 1000 nM in the assay with HDAC in Hela cells and under 100 nM at HDAC1. Also, in assay [1], the EC50 was over 1000 nM.

Regarding `CCC(=O)CCCCC[C@H](NC(=O)c1ccn(C)n1)c1ncc(-c2cc3ccccc3nc2OC)o1` [Compound 98, (S)-N-(1-(5-(2-methoxyquinolin-3-yl)oxazol-2-yl)-7-oxononyl)-1-methyl-1H-pyrazole-3-carboxamide], the IC50 with HDAC in Hela cells is 100 to 1000 nM; on HDAC1, under 100 nM. Further, the EC50 in assay [1] is over 1000 nM.
